Reference: publication PMC11678873, “Ketoconazole-Fumaric Acid Pharmaceutical Cocrystal: From Formulation Design for Bioavailability Improvement to Biocompatibility Testing and Antifungal Efficacy Evaluation” (International Journal of Molecular Sciences, 2024)

Experiments:
[1] = tested on: BALBc mice; experiment: Inflammatory cytokines in treated ear tissue, ELISA (MEST); assay type: in vivo
Experimental: (§1) For the oxidative stress assessment, the level of malondialdehyde, a marker of lipid peroxidation, was measured from lysates of liver samples (in vivo) and cells-BJ and HepG2 (in vitro), using the Malondialdehyde Colorimetric Assay Kit (TBA Method) provided by ElabScience. Tissue sample homogenates (liver and ear) were prepared as previously described by David et al.. […] Inflammatory reaction was assessed by measurement of the tumor necrosis factor α (TNFα) in liver samples, using the rat TNFα ELISA kit from EIAAB. IL1α and β and IL6 measurement from the mice ear lysates were completed by ELISA, using the respective kits from Quantikine ELISA Immunoassay kit. Tissue homogenate samples were treated according to manufacturer’s instructions; readings were performed at 450 nm with correction wavelength set at 540 nm, using an ELISA plate reader (Tecan, Grödig, Austria).
(§2) On day one, under anesthesia, all mice received 30 µL/mouse of Freund’s complete adjuvant (Thermo Scientific™, Waltham, MA, USA), subcutaneously, in the right flank and the abdominal fur was carefully shaved, without skin abrasion. Then animals were treated with 100 µL of locally applied solution (abdominal skin) of each tested substance, in a concentration of 200 µg mL^−1 solved in ethanol 70%, daily for the first 6 days. The left ear thickness of each mouse was measured with an electronic caliper (initial value). Each mouse was treated with 50 µL/ear of the same solution on the left ear pinnae on day 7—challenge and on day 14—rechallenge. Ear thickness was measured at 24 h and 48 h after challenge and rechallenge, respectively. Then mice were humanely sacrificed, under anesthesia, and ears were collected for inflammatory markers (IL1α, IL1β and IL6) assessment and histopathology.

[2] = tested on: BALBc mice; experiment: Histopathology of ear sections (MEST); assay type: in vivo
Experimental: as §2
(§3) For histopathological examination, the collected samples (liver and ears) were fixed in 10% buffered neutral formalin, embedded in paraffin, cut at 4 micrometer thickness, and stained using the Hematoxylin–Eosin (H&E) method. The slides were examined under a BX51 Olympus microscope, and images were taken with an Olympus UC 30 digital camera (Olympus, Hamburg, Germany) and processed using the Olympus Stream Basic program.

[3] = tested on: BJ dermal fibroblasts; experiment: Cell viability, MTS assay, BJ dermal fibroblasts; assay type: cell-based, human; conditions: for cell viability (effect in words): BJ, 24 h, Figure 4; for IC50: Homo sapiens, Fibroblast, BJ dermal fibroblasts, 24 h exposure, range 0.01–100 µM, MTS
Experimental: (§4) Dermal fibroblasts (BJ-ATCC CRL-2522™) and hepatocarcinoma cells (HepG2-HB-8065, ATCC, Gaithersburg, MD, USA) were employed. Cell culture medium used was Dulbecco modified Eagle medium (DMEM) supplemented with 5% FCS-fetal calf serum, 50 µg mL^−1 gentamycin, and 5 ng mL^−1 amphotericin, all from Biochrom AG (Berlin, Germany). Medium was changed twice a week. For all experiments, a medium with 2% FCS was used. […] The final concentration of DMSO in the solutions added to the cells was lower than 0.05%, without negative viability effects. Viability was measured using the MTS assay CellTiter 96® AQueous Non-Radioactive Cell Proliferation Assay from (Promega Corporation, Madison, WI, USA), as indicated by the producer. […] Negative controls were treated with medium. Viability was measured through colorimetry, using an ELISA plate reader (Tecan, Männedorf, Switzerland) at 540 nm. All experiments were performed in triplicate. […] Inhibitory concentration (IC50) was calculated. The statistical difference between experimental groups was evaluated by nonparametric Kruskal–Wallis test, followed by Dunns post-test; the statistical significance of the treatments and time exposure within the experimental groups was tested using two-way ANOVA, followed by Bonferroni post-tests; results were considered significant for p < 0.05. […] Statistical package used for data analysis was Prism version 4.00 for Windows, GraphPad Software, San Diego, CA, USA, www.graphpad.com. For IC50 calculation of the cell viability in vitro, the AAT Bioquest was used.

[4] = tested on: HepG2 hepatocarcinoma cells; experiment: Cell viability, MTS assay, HepG2 hepatocarcinoma cells; assay type: cell-based, human; conditions: for cell viability (effect in words): HepG2, 24 h, Figure 4; for IC50: Homo sapiens, HepG2 hepatocarcinoma cells, 24 h exposure, range 0.01–100 µM, MTS
Experimental: as §4

[5] = tested on: BJ dermal fibroblasts; experiment: Oxidative damage, malondialdehyde (MDA) in cell lysates, BJ; assay type: cell-based, human; conditions: 6 µM, 24 h, vs untreated controls
Experimental: as §1, with “Oxidative stress-induced damage was assessed in vitro by malondialdehyde (MDA) measurement from cell lysates. […] Cell lysates were then prepared as described. The concentration of 6 μM was chosen to mimic the clinical scenario [47]. […] For” for “For”, “manufacturer's” for “manufacturer’s”

[6] = tested on: HepG2 hepatocarcinoma cells; experiment: Oxidative damage, malondialdehyde (MDA) in cell lysates, HepG2; assay type: cell-based, human; conditions: HepG2, 6 µM, 24 h, vs untreated controls
Experimental: as §1, with “Oxidative stress-induced damage was assessed in vitro by malondialdehyde (MDA) measurement from cell lysates. […] Cell lysates were then prepared as described. The concentration of 6 μM was chosen to mimic the clinical scenario [47]. […] For” for “For”, “manufacturer's” for “manufacturer’s”

[7] = tested on: Candida albicans; parameters: method as in PMID 1799950; conditions: ICR mice, systemic Candida albicans infections, intraperitoneal; cited from earlier work
[8] = tested on: humans; conditions: 75 subjects, 500 mg daily for one year; cited from earlier work
[9] = tested on: Wistar rats; experiment: Liver histopathology (HE stain); assay type: in vivo; conditions: oral 20 mg kg^−1 bw, 30 min, 24 h, 7 days
Experimental: Adult female Wistar rats, 3 months old (200 g body weight), were kept in standard cages type II, 5 animals/cage, in constant conditions of humidity (65%), temperature (21 °C), and day/night cycles of 12 h, fed with standard food (Cantacuzino Institute, Bucharest, Romania) and water ad libitum. […] […] Blood and liver samples were collected.
For the histopathological examination, the liver samples collected from the left lateral lobe and right medial lobe were fixed in 10% buffered neutral formalin, embedded in paraffin, cut at 4 µm thickness, and stained using the Hematoxylin–Eosin (H&E) staining method. The slides were examined under a BX51 Olympus microscope, and images were taken with an Olympus UC 30 digital camera (Olympus, Hamburg, Germany) and processed using the Olympus Stream Basic program.
as §3

[10] = Wistar rats, one oral dose 20 mg kg^−1 bw
Experimental: (§5) Regarding HPLC-MS Quantification, serum samples were processed according to the modified protocol described by Wang et al. [99]. According to this protocol, 0.5 mL of serum was extracted into 3 mL of ethyl acetate by shaking for 3 min, after which the mixture was centrifuged for 8 min at 4000 rpm. The organic layer, after being transferred to a clean tube, was evaporated at 37 °C under a stream of nitrogen. The residue was resuspended in 100 μL acetonitrile and then analyzed using a LC2010 Shimadzu (Shimadzu, Kyoto, Japan) high-performance liquid chromatograph, equipped with diode array (DAD) and quadrupole mass spectrometer (MS) detectors.
(§6) Chromatographic separation was performed on a Grace Alltima C18 column (100 × 3 mm, 3 μm), at a temperature of 40 °C, using acetonitrile-water mixture 1:1 (V/V) with 0.1% formic acid as the mobile phase. The elution was carried out isocratically with 0.4 mL min^−1 flow rate. The injected sample volume was 10 μL. The mass spectrometer parameters were the capillary voltage of 1.5 kV, desolvation temperature of 250 °C, and interface temperature of 200 °C.

[11] = tested on: BALBc mice; conditions: mouse, in vivo
[12] = parameters: method as in PMID 3767339; conditions: healthy humans, therapeutic oral dose of 200 mg KTZ; cited from earlier work
[13] = in vivo; conditions: female, Wistar, rat, po, 20 mg/kg
Experimental: as §5, §6

[14] = BALBc mice, ear collected at R48 h, ELISA, vs control
[15] = BALBc mice, after MEST, HE stain

SMILES	IL1α in treated ear tissue [1, 14]	IL1β in treated ear tissue [1, 14]	IL6 in treated ear tissue [1, 14]	histology of ear pinna [2, 15]	cell viability (effect in words) [3]	IC50 [3] [µM]	cell viability (effect in words) [4]	IC50 [4] [µM]	malondialdehyde (MDA), marker for lipid peroxidation [5]	malondialdehyde (MDA), marker for lipid peroxidation [6]	also measured
O=[N+]([O-])c1ccc(Cl)c([N+](=O)[O-])c1 [DNCB, dinitrochlorobenzene]	significant increase	significant increase	significant increase	contact dermatitis							
O=C(O)/C=C/C(=O)O [FUM, trans-2-butenedioic acid]					minimal effect	7.26	minimal effect	3.19	smaller effect	slightly increased	IL1α in treated ear tissue ([1]; mouse, in vivo): decreased; IL1β in treated ear tissue ([1]; mouse, in vivo): decreased; IL6 in treated ear tissue ([1]; mouse, in vivo): increased; histology of ear pinna ([2]; mouse, in vivo): No histological changes; survival of infected mice [7]: prolonged survival and prevented one-fifth of deaths; adverse effects in humans [8]: no evidence of adverse effects
CC(=O)N1CCN(c2ccc(OCC3COC(Cn4ccnc4)(c4ccc(Cl)cc4Cl)O3)cc2)CC1 (stereo not drawn) [KTZ, cis-1-acetyl-4-[4-[[(2RS,4SR)-2-(2,4-dichlorophenyl)-2-(1H-imidazol-1-ylmethyl)-1,3-dioxolan-4-yl]methoxy]phenyl]piperazine]	decreased	decreased	increased	No histological changes	decreased	7.45	decreased	7.48	decreased	decreased	liver histopathology [9]: normal hepatic architecture; detection in plasma over time [10]: not detected after 6 h; epicutaneous sensitization, ear thickness [11]: did not induce any allergic reactions; plasma concentration [12]: 5.85 µM; AUC(0-t) [13]: 3820 ng·h/mL; Cmax ([13]; Cmax, Wistar rats, one oral dose 20 mg kg^−1 bw, serum): 5820 ± 700 ng/mL
